Data on ten molecules can be found in patent US10456405B2, “Nitric oxide-releasing prodrug molecule of substituted quinazolines” (ZHEJIANG HUAHAI PHARMACEUTICAL CO., LTD, priority 2015, dated 2019).

A value given as a limit tells only on which side of the number the result lay.

The nature of data set [1]: Release of HNO (headspace gas chromatography of nitrous oxide). The following applies: PBS pH 7.4, 37° C., argon, 90 min. How it is done:
Experiment 2. Experimental study on the tested compounds for releasing HNO HNO rapidly dimerizes and dehydrates to produce nitrous oxide in aqueous solution. In the experiment of detecting HNO, gas chromatographic headspace analysis is generally used to determine the amount of the released nitrous oxide, thereby indirectly detect the level of releasing HNO of the compound.
Experimental procedure: Each of the tested compounds was prepared to 20 mg/mL of mother liquor with DMF. Prior to the start of the experiment, 50 μL of drug mother liquor was placed into a 20 mL headspace sample vial. The tested compound was diluted by adding 5 mL of PBS buffer with pH 7.4. The temperature of the resulting sample was kept at 37° C. under argon gas for 90 min. Then the top gas was extracted for gas chromatographic analysis of nitrous oxide by using Angeli's Salt as a positive compound in the experiment.

The nature of data set [2]: Release of nitric oxide in vitro (Griess reagent, nitrite). The settings on record: for Amount of Released No: 10^−4 mol/L tested substance, phosphate buffer pH 7.4, cysteine 5 mmol/L, 37° C., 1 h, as nitrite. The method, then:
Experiment 1. Experimental Study on the Tested Compounds for Releasing Nitric Oxide in vitro
Experimental Procedure: • (1) Preparation of Griess Reagent: 4 g of aminobenzenesulfonamide, 0.2 g of N-naphthyl ethylene diamine hydrochloride, and 10 mL of 85% phosphoric acid solution were taken to form a solution, which is diluted to 100 mL with distilled water. • (2) Plotting of the standard curve: a serie of standard solution of 0.01, 0.03, 0.05, 0.07, 0.09, 0.2, 0.4 μg/mL of nitrite nitrogen was prepared, 10 mL of each was taken to sufficiently mix with 2.5 mL of Griess reagent, standing at room temperature for 10 min, and its absorbance value at the wavelength of 540 nm was measured. The standard curve was plotted based on the resulting data. • (3) Measuring the amount of the released NO of the tested drug: all of the tested substances were dissolved in dimethylsulfoxide (1 mL) firstly. Then phosphate buffer (pH 7.4) was slowly added dropwise, and shaken. The drug solution was diluted to 50 mL, allowing the buffer solution to contain excess cysteine (5 mmol/L), and the final concentration of the tested substances being 10^−4 mol/L; the solution was incubated at 37° C. 2 mL of the reaction solution was taken to mix with 500 μl of Griess reagent at 1 h respectively, standing at room temperature for 10 min. The absorbance value of the mixture at 540 nm was measured. Isosorbide mononitrate was used as a positive control, and H130 was used as a negative control. The amount of the released NO was represented by the amount of its oxidation product, nitrite (NO2^−).

The nature of data set [3]: Plasma stability in vitro, human plasma. The settings on record: for Content of Tested Substance (n = 2): human plasma, 2 μM, 37° C., in % (unit assumed); for stability in human plasma: within 2 h.
Experimental: (§1) Experimental method: The tested compounds (2 μM) were added into mouse or human plasma, and incubated at 37° C. Samples were taken at 0, 10, 30, 60 and 120 min respectively. The reaction was stopped by adding a stop agent. The mixture was sufficient shaken, and centrifuged at 4000 rpm for 10 min at 4° C. The supernatant was taken. The concentrations of the tested compounds and their metabolite (H130) in the supernatant were measured by LC-MS/MS.
Data set [4] can be described thus: Plasma stability in vitro, mouse plasma. The settings on record: CD-1 mice plasma, 2 μM, 37° C., in % (unit assumed).
Experimental: as §1

As to “2-(N-((2-(4-(5,7-dimethoxy-4-oxo-3,4-dihydro-quinazolin-2-yl)-2,6-dimethyl-phenoxy]-ethoxy) carbonyl)oxy)sulfamoyl)-1-methyl-1H-pyridine 1-2-onium salt [Compound H122]”, the “Molar Quantities of N2O/Sample” value in data set [1] was determined as 18.3%.
As for `COc1cc(OC)c2c(=O)[nH]c(-c3cc(C)c(OCCOC(=O)CCC(=O)N4CCN(CCO[N+](=O)[O-])CC4)c(C)c3)nc2c1` [Compound H117, 2-[4-(5,7-dimethoxy-4-oxo-3,4-dihydro-quinazolin-2-yl)-2,6-dimethyl-phenoxy]-ethyl 4-[4-(2-(nitroxy)ethyl)-piperazin-1-ly]-4-oxo-butyrate], in data set [2], the “Amount of Released No” value was 1.36 µM.
On the same count and under the same terms, the figure for `COc1cc(OC)c2c(=O)[nH]c(-c3cc(C)c(OCCOC(=O)NC4COC5C(O[N+](=O)[O-])COC45)c(C)c3)nc2c1` (stereo not shown) [Compound H120, 2-[4-(5,7-dimethoxy-4-oxo-3,4-dihydro-quinazolin-2-yl)-2,6-dimethyl-phenoxy]-ethyl (6-nitroxy-hexahydrofuro[3,2-b]furan-3-yl)-carbamate] is 1.32 µM.
With `COc1cc(OC)c2c(=O)[nH]c(-c3cc(C)c(OCCOC(=O)/C=C/C(=O)ONS(=O)(=O)c4ccco4)c(C)c3)nc2c1` [Compound H115, 2-[4-(5,7-dimethoxy-4-oxo-3,4-dihydro-quinazolin-2-yl)-2,6-dimethyl-phenoxy]-ethyl (E)-4-((furan-2-sulfonylamino)oxy)-4-oxo-2-crotonate], the “Molar Quantities of N2O/Sample” value in data set [1] came out at 17.8%.
The same measure, in the same setting: the figure for `COc1cc(OC)c2c(=O)[nH]c(-c3cc(C)c(OCCOC(=O)CCC(=O)ONS(=O)(=O)c4ccc(Cl)s4)c(C)c3)nc2c1` [Compound H121, 2-[4-(5,7-dimethoxy-4-oxo-3,4-dihydro-quinazolin-2-yl)-2,6-dimethyl-phenoxy]-ethyl 4-(((5-chlorothiophene)-2-sulfonylamino)oxy)-4-oxo-butyrate] is 24.6%.
For the molecule `COc1cc(OC)c2c(=O)[nH]c(-c3cc(C)c(OCCOC(=O)ONS(=O)(=O)c4ccc(C)s4)c(C)c3)nc2c1` [Compound H103, N-((2-(4-(5,7-dimethoxy-4-oxo-3,4-dihydroquinazolin-2-yl)-2,6-dimethylphenoxy)ethoxy)carbonyloxy)-5-methylthiophene-2-sulfonamide], the “Content of Tested Substance (n = 2)” value in data set [3] (0 min) amounted to 100.0; in data set [3] (10 min), 97.3; in data set [3] (30 min), 89.6; in data set [3] (60 min), 83.3; in data set [3] (120 min), 86.9; in data set [4] (0 min) it was 100.0. Besides, the “Content of Tested Substance (n = 2)” value in data set [4] (10 min), in data set [4] (30 min), in data set [4] (60 min) and in data set [4] (120 min) was 0.0 in each case. Besides, the “stability in human plasma” value in data set [3] is listed as “good stability”. Besides, the “Molar Quantities of N2O/Sample” value in data set [1] is 19.7%.
In the case of `COc1cc(OC)c2c(=O)[nH]c(-c3cc(C)c(OCCOC(=O)c4cccc(CO[N+](=O)[O-])c4)c(C)c3)nc2c1` [Compound H102, 2-[4-(5,7-dimethoxy-4-oxo-3,4-dihydro-quinazolin-2-yl)-2,6-dimethyl-phenoxy]-ethyl 3-nitroxymethyl-benzoate], the “Content of Tested Substance (n = 2)” value came out at 100.0 in data set [3] (0 min); 101.5 in data set [3] (10 min); 98.4 in data set [3] (30 min); 95.0 in data set [3] (60 min); 84.5 in data set [3] (120 min); 100.0 in data set [4] (0 min). Further, the “Content of Tested Substance (n = 2)” value in data set [4] (10 min) worked out at 10.8; in data set [4] (30 min), 1.3; in data set [4] (60 min), 3.1; in data set [4] (120 min), 1.8. Besides, the “stability in human plasma” value in data set [3] is given as “good stability”. Further, in data set [2], the “time after which NO is produced” value is no less than 2 h. For the same molecule, the “Amount of Released No” value in data set [2] is -0.55 µM. In data set [2] (within 1 h), the “NO release detected within 1 h” value is reported as “does not produce NO within 1 h”.
Take `[Na+].[Na+].[O-][N+]([O-])=NO` [Angeli's Salt, reference compound]: the “Molar Quantities of N2O/Sample” value in data set [1] amounted to 62.4%.
Take “3-(nitroxy)-2,2-di(nitroxymethyl) propyl 4-(2-[4-(5,7-dimethoxy-4-oxo-3,4-dihydro-quinazolin-2-yl)-2,6-dimethyl-phenoxy] butyl)-4-oxo-2-acetamino-butyrate [Compound H124]”: the “Amount of Released No” value in data set [2] is 2.89 µM.
Same read-out and setting: the figure for `COc1cc(OC)c2c(=O)[nH]c(-c3cc(C)c(OCCOC(=O)C(O)CC(=O)OCc4c(-c5ccccc5)no[n+]4[O-])c(C)c3)nc2c1` (stereo not shown) [Compound H113, 2-[4-(5,7-dimethoxy-4-oxo-3,4-dihydro-quinazolin-2-yl)-2,6-dimethyl-phenoxy]-ethyl (2-oxo-4-phenyl-furazan-3-yl)-methyl 2-hydroxy succinate] is 45.63 µM.
